# Test results published in the kinase profiling compilation of Christmann-Franck et al. (2016).
# Legend:
# Experiment in all cases: KINOMEscan competition binding
# Conditions in all cases: compound 1.0 µM
# ACVR2B (human) = ACVR2B (human) (UniProt Q13705)
# BMX (human) = BMX (human) (UniProt P51813)
# BRSK1 (human) = BRSK1 (human) (UniProt Q8TDC3)
# CAMK1G (human) = CAMK1G (human) (UniProt Q96NX5)
# CAMK2D (human) = CAMK2D (human) (UniProt Q13557)
# CDC42BPB (human) = CDC42BPB (human) (UniProt Q9Y5S2)
# [1] = system: EGFR (human), P00533 [L858R]
# [2] = system: EGFR (human), P00533 [P753S; 747-752 del]
# [3] = system: EGFR (human), P00533 [T790M/L858R]
# [4] = system: EGFR (human), P00533 [T790M]
# ERN1 (human) = ERN1 (human) (UniProt O75460)
# [5] = system: FLT3 (human), P36888 [N841I]
# GRK1 (human) = GRK1 (human) (UniProt Q15835)
# [6] = system: KIT (human), P10721 [D816V]
# LIMK1 (human) = LIMK1 (human) (UniProt P53667)
# LYN (human) = LYN (human) (UniProt P07948)
# MAK (human) = MAK (human) (UniProt P20794)
# MAP2K1 (human) = MAP2K1 (human) (UniProt Q02750)
# MAP2K7 (human) = MAP2K7 (human) (UniProt O14733)
# MAP3K4 (human) = MAP3K4 (human) (UniProt Q9Y6R4)
# MAPK10 (human) = MAPK10 (human) (UniProt P53779)
# MAPKAPK2 (human) = MAPKAPK2 (human) (UniProt P49137)
# MTOR (human) = MTOR (human) (UniProt P42345)
# MUSK (human) = MUSK (human) (UniProt O15146)
# NLK (human) = NLK (human) (UniProt Q9UBE8)
# NTRK3 (human) = NTRK3 (human) (UniProt Q16288)
# PDGFRA (human) = PDGFRA (human) (UniProt P16234)
# PDPK1 (human) = PDPK1 (human) (UniProt O15530)
# PI4KB (human) = PI4KB (human) (UniProt Q9UBF8)
# PIK3C2B (human) = PIK3C2B (human) (UniProt O00750)
# PKMYT1 (human) = PKMYT1 (human) (UniProt Q99640)
# [7] = system: RET (human), P07949 [V804M]
# RPS6KB1 (human) = RPS6KB1 (human) (UniProt P23443)
# SIK1 (human) = SIK1 (human) (UniProt P57059)
# STK10 (human) = STK10 (human) (UniProt O94804)
# STK25 (human) = STK25 (human) (UniProt O00506)
# STK38 (human) = STK38 (human) (UniProt Q15208)
# STK38L (human) = STK38L (human) (UniProt Q9Y2H1)
# STK4 (human) = STK4 (human) (UniProt Q13043)
# TEC (human) = TEC (human) (UniProt P42680)
# [8] = target: TYK2 JH1 catalytic (human) (UniProt P29597)
# WEE1 (human) = WEE1 (human) (UniProt P30291)
# YSK4 (human) = YSK4 (human) (UniProt Q56UN5)
# Sequence of LYN (human) (P07948 whole entry, looked up): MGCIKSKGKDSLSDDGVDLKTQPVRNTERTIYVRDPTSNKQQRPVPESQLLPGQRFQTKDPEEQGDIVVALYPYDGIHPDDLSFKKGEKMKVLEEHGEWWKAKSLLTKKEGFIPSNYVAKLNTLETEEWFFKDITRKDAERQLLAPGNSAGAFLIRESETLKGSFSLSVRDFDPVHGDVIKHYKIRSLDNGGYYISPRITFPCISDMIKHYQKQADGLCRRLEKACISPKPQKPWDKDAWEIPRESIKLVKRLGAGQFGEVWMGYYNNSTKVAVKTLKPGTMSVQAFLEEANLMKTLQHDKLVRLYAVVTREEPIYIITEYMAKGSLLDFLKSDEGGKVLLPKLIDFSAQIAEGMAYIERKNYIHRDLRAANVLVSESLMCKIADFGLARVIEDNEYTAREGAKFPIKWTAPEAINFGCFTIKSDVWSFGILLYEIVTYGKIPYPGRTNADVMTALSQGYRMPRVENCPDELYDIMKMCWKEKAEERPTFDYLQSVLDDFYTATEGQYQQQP
# Sequence of PI4KB (human) (Q9UBF8 whole entry, looked up): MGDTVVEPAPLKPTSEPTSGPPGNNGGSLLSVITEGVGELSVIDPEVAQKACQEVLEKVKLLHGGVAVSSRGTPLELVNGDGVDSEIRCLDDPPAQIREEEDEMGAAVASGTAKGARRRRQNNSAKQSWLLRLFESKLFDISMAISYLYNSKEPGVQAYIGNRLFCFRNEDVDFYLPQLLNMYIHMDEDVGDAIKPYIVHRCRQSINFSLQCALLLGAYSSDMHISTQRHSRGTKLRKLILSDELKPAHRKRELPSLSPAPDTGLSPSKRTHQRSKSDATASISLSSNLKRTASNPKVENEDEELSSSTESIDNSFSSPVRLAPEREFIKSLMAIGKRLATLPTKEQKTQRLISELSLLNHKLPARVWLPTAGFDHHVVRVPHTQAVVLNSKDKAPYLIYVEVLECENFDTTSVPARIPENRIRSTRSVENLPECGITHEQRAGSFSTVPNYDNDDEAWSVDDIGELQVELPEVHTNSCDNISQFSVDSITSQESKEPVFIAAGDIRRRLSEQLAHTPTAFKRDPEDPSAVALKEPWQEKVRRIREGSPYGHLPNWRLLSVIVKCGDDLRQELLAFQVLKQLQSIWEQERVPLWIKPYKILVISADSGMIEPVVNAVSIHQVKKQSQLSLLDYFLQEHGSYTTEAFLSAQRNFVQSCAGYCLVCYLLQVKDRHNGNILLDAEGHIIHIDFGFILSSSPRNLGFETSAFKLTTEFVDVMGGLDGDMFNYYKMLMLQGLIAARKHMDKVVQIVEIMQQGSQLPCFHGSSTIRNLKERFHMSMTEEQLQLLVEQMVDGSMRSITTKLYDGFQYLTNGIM
# Sequence of LIMK1 (human) (P53667 whole entry, looked up): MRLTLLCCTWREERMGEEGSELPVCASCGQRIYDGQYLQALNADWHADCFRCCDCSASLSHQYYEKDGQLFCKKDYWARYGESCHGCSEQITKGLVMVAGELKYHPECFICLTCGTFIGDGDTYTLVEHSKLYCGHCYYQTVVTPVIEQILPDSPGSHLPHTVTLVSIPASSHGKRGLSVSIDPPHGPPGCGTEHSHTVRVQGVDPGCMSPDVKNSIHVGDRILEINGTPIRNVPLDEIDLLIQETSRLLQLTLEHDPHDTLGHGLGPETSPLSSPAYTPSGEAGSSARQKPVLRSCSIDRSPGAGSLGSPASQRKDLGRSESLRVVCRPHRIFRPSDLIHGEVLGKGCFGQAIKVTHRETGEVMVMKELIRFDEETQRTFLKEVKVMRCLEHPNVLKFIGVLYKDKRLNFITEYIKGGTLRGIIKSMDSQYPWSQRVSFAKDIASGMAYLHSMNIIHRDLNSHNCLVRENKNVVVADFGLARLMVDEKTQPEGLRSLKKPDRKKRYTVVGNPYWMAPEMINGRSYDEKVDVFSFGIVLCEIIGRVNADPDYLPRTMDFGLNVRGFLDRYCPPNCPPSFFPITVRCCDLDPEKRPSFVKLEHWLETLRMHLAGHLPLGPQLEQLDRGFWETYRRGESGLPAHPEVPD
# Sequence of MUSK (human) (O15146 whole entry, looked up): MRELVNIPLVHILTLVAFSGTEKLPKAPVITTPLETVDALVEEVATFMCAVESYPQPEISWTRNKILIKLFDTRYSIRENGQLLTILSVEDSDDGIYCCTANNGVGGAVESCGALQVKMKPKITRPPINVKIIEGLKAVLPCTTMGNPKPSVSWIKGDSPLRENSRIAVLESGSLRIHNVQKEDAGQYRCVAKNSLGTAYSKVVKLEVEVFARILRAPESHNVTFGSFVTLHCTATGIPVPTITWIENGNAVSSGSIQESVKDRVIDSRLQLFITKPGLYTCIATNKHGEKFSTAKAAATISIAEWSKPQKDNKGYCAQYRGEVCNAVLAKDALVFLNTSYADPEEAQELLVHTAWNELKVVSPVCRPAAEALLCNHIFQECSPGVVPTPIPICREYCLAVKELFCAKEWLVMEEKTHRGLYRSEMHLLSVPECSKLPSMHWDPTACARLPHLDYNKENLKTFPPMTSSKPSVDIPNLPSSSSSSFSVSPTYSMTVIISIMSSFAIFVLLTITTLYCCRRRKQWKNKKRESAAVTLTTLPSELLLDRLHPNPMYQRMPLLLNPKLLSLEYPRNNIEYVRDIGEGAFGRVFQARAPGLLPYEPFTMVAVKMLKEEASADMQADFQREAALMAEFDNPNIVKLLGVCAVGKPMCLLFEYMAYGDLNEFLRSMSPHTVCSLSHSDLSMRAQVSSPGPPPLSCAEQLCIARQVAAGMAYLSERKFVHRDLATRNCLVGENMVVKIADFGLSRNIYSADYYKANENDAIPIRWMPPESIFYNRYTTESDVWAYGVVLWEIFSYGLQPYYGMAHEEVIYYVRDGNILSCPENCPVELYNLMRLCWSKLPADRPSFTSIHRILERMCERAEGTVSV
# Sequence of NLK (human) (Q9UBE8 whole entry, looked up): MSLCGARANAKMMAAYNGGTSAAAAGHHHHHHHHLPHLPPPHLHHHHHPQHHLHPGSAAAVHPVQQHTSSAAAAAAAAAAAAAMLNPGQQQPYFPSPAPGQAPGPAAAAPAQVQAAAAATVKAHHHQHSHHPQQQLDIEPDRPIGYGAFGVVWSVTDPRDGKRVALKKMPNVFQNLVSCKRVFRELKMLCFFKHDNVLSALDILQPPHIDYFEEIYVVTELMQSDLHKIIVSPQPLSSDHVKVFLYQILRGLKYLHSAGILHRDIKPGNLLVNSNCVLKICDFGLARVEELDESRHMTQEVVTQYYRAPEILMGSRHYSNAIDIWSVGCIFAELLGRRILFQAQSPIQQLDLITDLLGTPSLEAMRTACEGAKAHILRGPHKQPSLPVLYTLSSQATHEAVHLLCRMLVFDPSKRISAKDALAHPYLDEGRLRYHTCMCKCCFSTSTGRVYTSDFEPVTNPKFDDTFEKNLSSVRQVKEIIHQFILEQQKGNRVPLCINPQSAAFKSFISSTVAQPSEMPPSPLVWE
# Sequence of PKMYT1 (human) (Q99640 whole entry, looked up): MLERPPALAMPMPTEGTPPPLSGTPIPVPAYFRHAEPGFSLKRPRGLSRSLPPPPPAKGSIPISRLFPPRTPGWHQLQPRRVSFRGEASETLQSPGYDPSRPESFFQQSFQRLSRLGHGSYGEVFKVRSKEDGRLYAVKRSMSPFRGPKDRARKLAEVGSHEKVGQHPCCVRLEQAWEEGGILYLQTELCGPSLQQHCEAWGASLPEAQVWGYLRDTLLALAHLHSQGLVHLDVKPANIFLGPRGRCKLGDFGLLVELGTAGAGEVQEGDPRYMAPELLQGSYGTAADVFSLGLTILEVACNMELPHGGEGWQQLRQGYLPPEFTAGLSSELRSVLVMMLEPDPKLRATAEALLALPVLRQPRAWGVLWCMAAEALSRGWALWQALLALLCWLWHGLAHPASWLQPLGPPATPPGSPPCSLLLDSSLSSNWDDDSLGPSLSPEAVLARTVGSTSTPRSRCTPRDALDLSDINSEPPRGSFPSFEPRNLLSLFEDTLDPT
# Sequence of MAPKAPK2 (human) (P49137 whole entry, looked up): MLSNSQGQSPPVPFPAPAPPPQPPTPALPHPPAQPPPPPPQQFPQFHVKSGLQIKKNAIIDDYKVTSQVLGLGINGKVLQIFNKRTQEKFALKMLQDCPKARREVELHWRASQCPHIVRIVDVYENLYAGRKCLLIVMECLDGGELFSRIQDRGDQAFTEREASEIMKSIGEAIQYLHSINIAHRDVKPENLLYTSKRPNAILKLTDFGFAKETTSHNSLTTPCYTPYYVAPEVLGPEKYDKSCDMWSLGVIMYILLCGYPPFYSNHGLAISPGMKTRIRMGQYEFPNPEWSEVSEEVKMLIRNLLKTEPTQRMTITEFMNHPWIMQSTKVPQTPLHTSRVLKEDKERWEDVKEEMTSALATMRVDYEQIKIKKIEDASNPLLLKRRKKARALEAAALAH
# Sequence of BMX (human) (P51813 whole entry, looked up): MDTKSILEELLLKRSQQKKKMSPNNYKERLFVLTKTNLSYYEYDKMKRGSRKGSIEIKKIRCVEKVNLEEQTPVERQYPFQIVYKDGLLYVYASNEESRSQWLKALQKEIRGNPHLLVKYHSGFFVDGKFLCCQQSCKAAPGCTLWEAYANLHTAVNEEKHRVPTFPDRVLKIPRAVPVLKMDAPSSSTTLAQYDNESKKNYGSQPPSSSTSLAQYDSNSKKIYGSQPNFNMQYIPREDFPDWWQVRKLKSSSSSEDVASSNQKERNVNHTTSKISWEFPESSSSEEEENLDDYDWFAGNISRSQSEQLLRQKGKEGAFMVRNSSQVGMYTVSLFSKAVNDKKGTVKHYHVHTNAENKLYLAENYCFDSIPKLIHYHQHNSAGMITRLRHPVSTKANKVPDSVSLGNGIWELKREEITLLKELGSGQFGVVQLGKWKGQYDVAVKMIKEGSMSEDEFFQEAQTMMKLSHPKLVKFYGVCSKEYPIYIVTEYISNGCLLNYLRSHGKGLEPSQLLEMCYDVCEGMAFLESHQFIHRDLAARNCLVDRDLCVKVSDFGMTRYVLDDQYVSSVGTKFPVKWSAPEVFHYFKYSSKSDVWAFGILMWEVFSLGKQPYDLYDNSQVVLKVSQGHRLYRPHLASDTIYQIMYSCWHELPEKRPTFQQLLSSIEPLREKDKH
structure (smiles),measurement,setting,value
COCCNCCCn1c(C(=O)CF)c(-c2ccc(C)cc2)c2c(N)ncnc21,"kinase still bound, per cent of control",ACVR2B (human),95%
same,"kinase still bound, per cent of control",BMX (human),98%
same,"kinase still bound, per cent of control",BRSK1 (human),82%
same,"kinase still bound, per cent of control",CAMK1G (human),97%
same,"kinase still bound, per cent of control",CAMK2D (human),82%
same,"kinase still bound, per cent of control",CDC42BPB (human),94%
same,"kinase still bound, per cent of control",[1],62%
same,"kinase still bound, per cent of control",[2],100%
same,"kinase still bound, per cent of control",[3],100%
same,"kinase still bound, per cent of control",[4],100%
same,"kinase still bound, per cent of control",ERN1 (human),99%
same,"kinase still bound, per cent of control",[5],65%
same,"kinase still bound, per cent of control",GRK1 (human),100%
same,"kinase still bound, per cent of control",[6],96%
same,"kinase still bound, per cent of control",LIMK1 (human),100%
same,"kinase still bound, per cent of control",LYN (human),97%
same,"kinase still bound, per cent of control",MAK (human),95%
same,"kinase still bound, per cent of control",MAP2K1 (human),100%
same,"kinase still bound, per cent of control",MAP2K7 (human),78%
same,"kinase still bound, per cent of control",MAP3K4 (human),100%
same,"kinase still bound, per cent of control",MAPK10 (human),100%
same,"kinase still bound, per cent of control",MAPKAPK2 (human),97%
same,"kinase still bound, per cent of control",MTOR (human),90%
same,"kinase still bound, per cent of control",MUSK (human),100%
same,"kinase still bound, per cent of control",NLK (human),96%
same,"kinase still bound, per cent of control",NTRK3 (human),91%
same,"kinase still bound, per cent of control",PDGFRA (human),83%
same,"kinase still bound, per cent of control",PDPK1 (human),100%
same,"kinase still bound, per cent of control",PI4KB (human),100%
same,"kinase still bound, per cent of control",PIK3C2B (human),100%
same,"kinase still bound, per cent of control",PKMYT1 (human),86%
same,"kinase still bound, per cent of control",[7],100%
same,"kinase still bound, per cent of control",RPS6KB1 (human),100%
same,"kinase still bound, per cent of control",SIK1 (human),98%
same,"kinase still bound, per cent of control",STK10 (human),100%
same,"kinase still bound, per cent of control",STK25 (human),100%
same,"kinase still bound, per cent of control",STK38 (human),100%
same,"kinase still bound, per cent of control",STK38L (human),92%
same,"kinase still bound, per cent of control",STK4 (human),94%
same,"kinase still bound, per cent of control",TEC (human),100%
same,"kinase still bound, per cent of control",[8],100%
same,"kinase still bound, per cent of control",WEE1 (human),94%
same,"kinase still bound, per cent of control",YSK4 (human),100%
